Measurements reported in US6525001B1, “Substituted pyrimidine and pyridine herbicides” (Mid-American Commercialization Corporation, priority 1997, dated 2003).

How the values were obtained:
Format in all cases: in vivo
Parameters in all cases: key: 0 is no effect; 10 is complete control
[1] = test system: barnyardgrass (Echinochloa crus-galli); test: Test A pre-/postemergence; details: 0 to 10 scale
Description: (§1) Seeds of barnyardgrass (Echinochloa crus-galli), crabgrass (Digitaria spp.), morningglory (Ipomoea spp.), and velvetleaf (Abutilon theophrasti) were planted into a sandy loam soil and treated preemergence by soil drench with test chemicals formulated in a non-phytotoxic solvent mixture which includes a surfactant. At the same time, these crop and weed species were also treated postemergence sprayed to runoff, with test chemicals formulated in the same manner. Plants ranged in height from two to eighteen cm and were in the one to two leaf stage for the postemergence treatment. Treated plants and untreated controls were maintained in a greenhouse for approximately eleven days, after which all treated plants were compared to untreated controls and visually evaluated for injury. Plant response ratings, summarized in Table A, are based on a 0 to 10 scale where 0 is no effect and 10 is complete control. A dash (−) response means no test results.

[2] = test system: crabgrass (Digitaria spp.); test: Test A pre-/postemergence; details: 0 to 10 scale
Description: as §1

[3] = test system: morningglory (Ipomoea spp.); test: Test A pre-/postemergence; details: 0 to 10 scale
Description: as §1

[4] = test system: velvetleaf (Abutilon theophrasti); test: Test A pre-/postemergence; details: 0 to 10 scale
Description: as §1

[5] = test system: bedstraw (Galium aparine); test: Test B pre-/postemergence
Summary of the method: (§2)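 Seeds were planted and sprayed preemergence, while plants at 2 to 18 cm (1- to 4-leaf stage) were sprayed postemergence at the same time, with test chemical in a non-phytotoxic solvent mixture containing surfactant. After twelve to sixteen days in a greenhouse, injury was rated visually against untreated controls on a 0–10 scale.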

[6] = test system: broadleaf signalgrass (Brachiaria decumbens); test: Test B pre-/postemergence
Summary of the method: as §2

[7] = test system: giant foxtail (Setaria faberii); test: Test B pre-/postemergence
Summary of the method: as §2

[8] = test system: momingglory (Ipomoea hederacea); test: Test B pre-/postemergence
Summary of the method: as §2

wild oat (Avena fatua) = test: Test B pre-/postemergence
Summary of the method: as §2

[9] = PRE SOIL DRENCH, Rate 2000 g/ha
[10] = postemergence SPRAYED TO RUNOFF, Rate 1000 g/ha
[11] = Preemergence, Rate 62 g/ha, scale of 0 to 10

Cc1cnc(-c2ccc(C(F)(F)F)cc2)nc1Cn1nc(C(F)(F)F)cc1C [Compound 13]
4: Plant response rating, Giant foxtail ([7]; Rate 250 g/ha, Postemergence) | Plant response rating, Wild oats (wild oat (Avena fatua); Rate 250 g/ha, Postemergence) | Plant response rating, Wild oats (wild oat (Avena fatua); Rate 500 g/ha, Postemergence)
8: Plant response rating, Velvetleaf [4, 10] | B. signalgrass plant response rating ([6]; Rate 125 g/ha, Preemergence) | Plant response rating, B. signalgrass ([6]; Rate 500 g/ha, Postemergence)
5: Plant response rating, Bedstraw ([5]; Rate 250 g/ha, Preemergence) | Plant response rating, B. signalgrass ([6]; Rate 62 g/ha, Postemergence) | Plant response rating, B. signalgrass ([6]; Rate 125 g/ha, Postemergence) | Plant response rating, Giant foxtail ([7]; Rate 500 g/ha, Postemergence) | Wild oats plant response rating (wild oat (Avena fatua); Rate 125 g/ha, Preemergence)
9: Plant response rating, Barnyardgrass [1, 9] | Plant response rating, Crabgrass [2, 10] | Plant response rating, Velvetleaf [4, 9] | Plant response rating, Bedstraw ([5]; Rate 125 g/ha, Postemergence) | Plant response rating, B. signalgrass ([6]; Rate 250 g/ha, Preemergence) | Plant response rating, B. signalgrass ([6]; Rate 500 g/ha, Preemergence) | Giant foxtail plant response rating ([7]; Rate 62 g/ha, Preemergence) | Morningglory plant response rating ([8]; Rate 62 g/ha, Preemergence) | Plant response rating, Morningglory ([8]; Rate 250 g/ha, Postemergence) | Plant response rating, Morningglory ([8]; Rate 250 g/ha, Preemergence) | Plant response rating, Morningglory ([8]; Rate 500 g/ha, Postemergence) | Plant response rating, Wild oats (wild oat (Avena fatua); Rate 500 g/ha, Preemergence)
10: Plant response rating, Crabgrass [2, 9] | Plant response rating, Bedstraw ([5]; Rate 250 g/ha, Postemergence) | Plant response rating, Bedstraw ([5]; Rate 500 g/ha, Postemergence) | Giant foxtail plant response rating ([7]; Rate 125 g/ha, Preemergence) | Plant response rating, Giant foxtail ([7]; Rate 250 g/ha, Preemergence) | Plant response rating, Giant foxtail ([7]; Rate 500 g/ha, Preemergence) | Morningglory plant response rating ([8]; Rate 125 g/ha, Preemergence) | Plant response rating, Morningglory ([8]; Rate 500 g/ha, Preemergence)
3: Plant response rating, Morningglory [3, 9] | Plant response rating, Giant foxtail ([7]; Rate 125 g/ha, Postemergence) | Plant response rating, Wild oats (wild oat (Avena fatua); Rate 62 g/ha, Postemergence) | Wild oats plant response rating (wild oat (Avena fatua); Rate 62 g/ha, Preemergence) | Plant response rating, Wild oats (wild oat (Avena fatua); Rate 125 g/ha, Postemergence)
1: Bedstraw plant response rating ([5]; Rate 62 g/ha, Preemergence)
6: Plant response rating, Barnyardgrass [1, 10] | Plant response rating, Bedstraw ([5]; Rate 500 g/ha, Preemergence)
7: Plant response rating, Bedstraw ([5]; Rate 62 g/ha, Postemergence) | B. signalgrass plant response rating ([6]; Rate 62 g/ha, Preemergence) | Plant response rating, B. signalgrass ([6]; Rate 250 g/ha, Postemergence) | Plant response rating, Morningglory ([8]; Rate 62 g/ha, Postemergence) | Plant response rating, Morningglory ([8]; Rate 125 g/ha, Postemergence) | Plant response rating, Wild oats (wild oat (Avena fatua); Rate 250 g/ha, Preemergence)
2: Plant response rating, Morningglory [3, 10] | Bedstraw plant response rating ([5]; Rate 125 g/ha, Preemergence) | Plant response rating, Giant foxtail ([7]; Rate 62 g/ha, Postemergence)

Cc1cnc(-n2ccc(C(F)(F)F)n2)nc1C(=O)c1cccc(C(F)(F)F)c1 [Compound 59]
3: Plant response rating, Bedstraw [5, 11] | Plant response rating, B. signalgrass ([6]; Rate 500 g/ha, Postemergence) | Plant response rating, Wild oats (wild oat (Avena fatua); Rate 250 g/ha, Postemergence)
2: B. signalgrass plant response rating ([6]; Rate 62 g/ha, Postemergence) | B. signalgrass plant response rating ([6]; Rate 125 g/ha, Postemergence) | Plant response rating, B. signalgrass ([6]; Rate 250 g/ha, Postemergence)
10: Plant response rating, Barnyardgrass [1, 9] | Plant response rating, Crabgrass [2, 9] | Plant response rating, Velvetleaf [4, 9] | Plant response rating, Giant foxtail ([7]; Rate 125 g/ha, Preemergence) | Plant response rating, Giant foxtail ([7]; Rate 250 g/ha, Preemergence) | Plant response rating, Giant foxtail ([7]; Rate 500 g/ha, Preemergence) | Plant response rating, Morningglory ([8]; Rate 250 g/ha, Postemergence) | Plant response rating, Morningglory ([8]; Rate 250 g/ha, Preemergence) | Plant response rating, Morningglory ([8]; Rate 500 g/ha, Postemergence) | Plant response rating, Morningglory ([8]; Rate 500 g/ha, Preemergence)
7: Bedstraw plant response rating ([5]; Rate 62 g/ha, Postemergence) | Bedstraw plant response rating ([5]; Rate 125 g/ha, Postemergence) | B. signalgrass plant response rating ([6]; Rate 62 g/ha, Preemergence) | Morningglory plant response rating ([8]; Rate 62 g/ha, Postemergence) | Plant response rating, Wild oats (wild oat (Avena fatua); [11])
1: Wild oats plant response rating (wild oat (Avena fatua); Rate 62 g/ha, Postemergence) | Wild oats plant response rating (wild oat (Avena fatua); Rate 125 g/ha, Postemergence)
6: Plant response rating, Bedstraw ([5]; Rate 125 g/ha, Preemergence) | Plant response rating, Bedstraw ([5]; Rate 250 g/ha, Preemergence) | Giant foxtail plant response rating ([7]; Rate 62 g/ha, Postemergence) | Giant foxtail plant response rating ([7]; Rate 125 g/ha, Postemergence) | Plant response rating, Morningglory [8, 11] | Plant response rating, Morningglory ([8]; Rate 125 g/ha, Preemergence) | Plant response rating, Wild oats (wild oat (Avena fatua); Rate 500 g/ha, Postemergence)
9: Plant response rating, Barnyardgrass [1, 10] | Plant response rating, Crabgrass [2, 10] | Plant response rating, Morningglory [3, 9] | Plant response rating, Velvetleaf [4, 10] | Plant response rating, Bedstraw ([5]; Rate 500 g/ha, Postemergence) | Plant response rating, B. signalgrass ([6]; Rate 125 g/ha, Preemergence) | Plant response rating, B. signalgrass ([6]; Rate 250 g/ha, Preemergence) | Plant response rating, B. signalgrass ([6]; Rate 500 g/ha, Preemergence) | Plant response rating, Giant foxtail ([7]; Rate 500 g/ha, Postemergence) | Plant response rating, Wild oats (wild oat (Avena fatua); Rate 250 g/ha, Preemergence) | Plant response rating, Wild oats (wild oat (Avena fatua); Rate 500 g/ha, Preemergence)
8: Plant response rating, Morningglory [3, 10] | Plant response rating, Bedstraw ([5]; Rate 250 g/ha, Postemergence) | Plant response rating, Bedstraw ([5]; Rate 500 g/ha, Preemergence) | Plant response rating, Giant foxtail [7, 11] | Plant response rating, Giant foxtail ([7]; Rate 250 g/ha, Postemergence) | Plant response rating, Wild oats (wild oat (Avena fatua); Rate 125 g/ha, Preemergence)
